In patent US8518383B2, “Oral care products comprising buffer systems for improved mineralization/remineralization benefits” (Wm. Wrigley Jr. Company, priority 2006, dated 2013):

Assay: in-vitro pH cycling model, enamel microhardness (remineralization efficacy)
Design: species or system human
Procedure: The purpose of this test was to evaluate in-vitro efficacy of soluble calcium and phosphate combinations. Testing was conducted at the University of Indiana. Enamel specimens (3×3×3 mm diameter window) were removed from extracted human teeth and mounted on acrylic rods. The enamel surface was ground and polished using alumina slurry, rinsed with deionized water, and air dried. Artificial lesions were then formed in the enamel specimens by a 96 hr immersion in a partially saturated HAP acid buffer consisting of 0.1 mM lactic acid and 0.2 wt % Carbopol C907 adjusted to a pH of 5. Four baseline indentations per specimen were placed with a Vickers diamond at a 200 g load for 15 seconds and the indentation lengths had to be in a range from 25-45 microns. Enamel specimens (N=18 per treatment) were then cycled daily through a series of solutions repeated over an 8 day time period. Artificial saliva, acid challenge and pooled whole saliva solutions were prepared fresh daily. After treatment, the enamel microhardness was assessed and the difference between initial and final microhardness was calculated as a measure of remineralization efficacy. The data was then statistically analyzed with overall treatment comparisons calculated using an ANOVA model at α=0.05. Post ANOVA pairwise comparisons were made using a 2 tailed student t-test.
Artificial saliva with active treatments (1 hr, 4× daily)
Saliva treatment (0.05 ppm fluoride, 30 min daily)
Acid challenge (partially saturated HAP acid/carbopol buffer, Ph 5.0, 20 min., 3× daily)
Saliva film in a humid environment (overnight)
Comparison of Ca-citrate and Ca-citrate+Phosphate blend vs. Ca-lactate (see FIG. 1)

## CC(O)C(=O)[O-].CC(O)C(=O)[O-].O.O.O.O.O.[Ca+2] (stereo not drawn) [CaLac (1500), Ca Lactate 5-hydrate]
Ca 1500 ppm in artificial saliva, 1 hr 4x daily, 8 day pH cycling, mean, N=18
  ΔVSMH (difference between initial and final enamel microhardness): 5.99

## CC(O)C(=O)[O-].CC(O)C(=O)[O-].[Ca+2] (stereo not drawn) [Ca-lactate]
500 and 1500 ppm
  dose response of enamel rehardening: No significant dose response

## CC(O)C(=O)[O-].CC(O)C(=O)[O-].O.O.O.O.O.[Ca+2] (stereo not drawn) [CaLac (500), Ca Lactate 5-hydrate]
Ca 500 ppm in artificial saliva, 1 hr 4x daily, 8 day pH cycling, mean, N=18
  ΔVSMH (difference between initial and final enamel microhardness): 4.78

## O=C([O-])CC(O)(CC(=O)[O-])C(=O)[O-].O=C([O-])CC(O)(CC(=O)[O-])C(=O)[O-].[Ca+2].[Ca+2].[Ca+2] [CaCit (811), Ca Citrate]
Ca 811 ppm (0.38% salt) in artificial saliva, 1 hr 4x daily, 8 day pH cycling, mean, N=18
  ΔVSMH (difference between initial and final enamel microhardness): 29.65
Ca 811 ppm (0.38% salt) in artificial saliva; 1 hr 4x daily, 8 day pH cycling; mean, N=18; 0.38%)
  ΔVSMH (difference between initial and final enamel microhardness): 29.55
Pairwise comparison of treatment groups, see value
  enamel rehardening, comparison in words: higher enamel rehardening over Ca-lactate
